Experimental findings from US8791098B2 (priority 2008, dated 2014) are described below.

In brackets after ≈: the same amount, converted by molar mass. Read-outs that look alike come from different tables or passages of the source. Some results are limits rather than exact numbers.

For one experiment, the system named is HL-60 cells. In words: cells. Particulars: Homo sapiens. How it is done:
A given number of cells were cultivated in 96-well plates with serial dilutions of the drugs up to 100 ng/ml. Tubulysin A is used as a positive control, whereas methanol is used as a negative control. After 5 days of incubation the metabolic activities of the cells were measured using MTT-assay as described under the methods section.
The effect of pre-tubulysin 816 and 827 was tested with regard to the growth of other cell lines, including the mouse connective tissues fibroblast L929, the human lung carcinoma cell line A549, the human colon adenocarcinoma cell line SW-480, and the human histiocytic lymphoma cell line U937, in addition to the human myeloid leukemia cell line HL-60.

Experiment [1] deals with T1, purified microtubules protein isolated from porcine brain (Sus scrofa, UniProt P02550+P02554).
T1 construct: Microtubules proteins were purified from porcine brain; from tissue; host or cells: porcine brain
T1 sequence (P02554 whole entry): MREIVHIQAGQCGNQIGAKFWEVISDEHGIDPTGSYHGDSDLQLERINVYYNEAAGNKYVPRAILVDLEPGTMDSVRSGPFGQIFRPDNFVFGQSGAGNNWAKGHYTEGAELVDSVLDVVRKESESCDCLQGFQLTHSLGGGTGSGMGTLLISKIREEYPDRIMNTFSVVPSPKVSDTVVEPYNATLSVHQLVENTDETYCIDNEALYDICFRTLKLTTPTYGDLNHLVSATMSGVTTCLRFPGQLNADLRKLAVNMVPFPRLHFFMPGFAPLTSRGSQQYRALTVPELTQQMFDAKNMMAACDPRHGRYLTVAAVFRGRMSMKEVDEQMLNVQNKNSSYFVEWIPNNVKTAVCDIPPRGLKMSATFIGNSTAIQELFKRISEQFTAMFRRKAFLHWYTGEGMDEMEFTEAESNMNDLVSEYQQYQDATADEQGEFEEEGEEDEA
T1 sequence (P02550 whole entry): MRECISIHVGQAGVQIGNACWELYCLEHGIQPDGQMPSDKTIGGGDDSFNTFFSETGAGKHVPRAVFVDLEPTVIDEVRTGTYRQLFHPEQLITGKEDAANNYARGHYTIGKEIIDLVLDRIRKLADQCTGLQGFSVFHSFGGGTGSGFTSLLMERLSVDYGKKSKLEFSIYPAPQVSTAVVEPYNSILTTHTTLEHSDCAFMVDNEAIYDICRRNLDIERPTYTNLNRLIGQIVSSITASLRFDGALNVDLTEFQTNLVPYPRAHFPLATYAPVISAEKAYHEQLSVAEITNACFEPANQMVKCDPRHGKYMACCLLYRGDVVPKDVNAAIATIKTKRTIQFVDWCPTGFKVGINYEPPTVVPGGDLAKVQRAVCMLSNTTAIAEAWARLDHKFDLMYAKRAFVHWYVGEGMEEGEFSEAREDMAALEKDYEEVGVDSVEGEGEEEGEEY
In words: Turbidometric microtubules protein polymerization assay. Format: biochemical. To be noted: 10 μM microtubules protein, 10 min, 37° C. How it is done:
(§1) Tubulin purification: Microtubules proteins were purified from porcine brain by using standard procedures that includes three cycles of temperature-dependent polymerization and de-polymerization, as described elsewhere.
(§2) Polymerisation assay: Tubulin polymerisation was monitored by using turbidometry assay (lit). Samples (200 μl, 10 μM tubulin) in PEM polymerisation buffer (0.1 M PIPES, pH 6.6, 1 mM EGTA, 1 mM MgSO4, and 1 mM GTP), were rapidly warmed to 37° C. in a water-jacketed cuvette holder of a diode array photometer (Beckman spectrophotometer DU 7500). Absorbance at 350 nm where monitored in the absence and the presence of the drugs.
10 μM of purified microtubles protein were mixed on ice with 0, 1.7, 3.2, and 6.7 μM pre-tubulysin-816. Microtubules protein polymerization was then monitored for 10 min at 350 nm and 37° C. […] 1.7 μM of the drug was able to inhibit the polymerization of the protein by approximately 20%. Increase the concentration of the drug to 6.7 μM induced an inhibition of the polymerization to 60%.
Therefore, we were interested to test its activity on the polymerization of microtubules in vitro. We first studied its polymerization inhibition potential on microtubules polymerization. 10 μM of purified microtubules protein were mixed on ice with 0, 1, 1.7 and 3.4 μM pre-tubulysin-827 on ice. Microtubules protein polymerization was then monitored for 10 min at 350 nm and 37° C.

The subject of a further experiment is L929. In words: Anti-proliferation MTT assay (Example 2, Table 1). The class given is cell-based. Particulars: L929 mouse connective tissue fibroblast.
The next experiment deals with PtK2 cells. Format: cell-based. To be noted: for concentration at which effects on microtubules and spindle morphologies appear / concentration for complete de-polymerization (disappearance) of interphase microtubules: 24 hours incubation. How it is done: Cell staining: Ptk2 cells were seeded on round glass coverslips (13 mm in diameter) in 4-well plates. Cells were incubated with the drugs to the given times as indicated for each experiment. For staining the microtubules and the nuclei, cells were firstly fixed with cold (−20° C.) acetone/methanol (1:1) for 10 min. For labelling the microtubules, cells were incubated with a primary monoclonal antibody against α-tubulin (1:500 Sigam) for 45 min at 37° C., followed by a secondary anti-mouse IgG antibody conjugated with Alexa488 (1:2000; Molecular probes) under the same incubations conditions. The nuclei were stained with DAPI (1 μg/ml in PBS). The cells were washed with phosphate buffer saline (PBS) between incubations. Coverslips were mounted by using Prolong Antifade (Molecular Probes) and imaged through a fluorescence microscope (LSM-Zeiss) with appropriate filter set.
Tubulysin A and D are known to induce de-polymerization of the interphase microtubules of mammalian cells and additionally induce a multi-polar spindle pool in mitotic cells (Khalil, M. et al., Chembiochem. 7, 678-683 (2006); Sasse, F., Menche, D. Nat. Chem. Biol. 3, 87-89 (2007)). Here the effect of pre-tubulysin treatment on the morphologies of microtubules and microtubules related structures in PtK2 cells was tested. PtK2 cells were seeded onto glass cover clips in 4 well plates and cultivated for 24 or 48 hours under growth conditions. The cells were then treated with different concentrations of tubulysin A, tubulysin D, pre-tubulysin-816 or pre-tubulysin-827. The control cells were treated only with equivalent amount of methanol (solvent). The cells were thin incubated for further 24 hours before they were fixed as described under the methods section. Fixed cells were then washed with PBS and finally labeled with anti-α-tubulin primary antibodies followed by anti-mouse-alexa-488 secondary antibodies to visualize the microtubules. The nuclei were stained with DAPI.

In experiment [2] the test system is U-2 OS human osteosarcoma cells. In words: cells. Format: cell-based. To be noted: Homo sapiens, U2OS, average of two measurements, read-out: IC50. How it is done:
Cytotoxicity testing of pretubulysin (AU827), N-desmethyl-pretubulysin (AU816) and Tubulysin A and D was performed as follows: Cells were seeded at 6×10^3 cells per well of 96-well plates in 180 μl complete medium and directly treated with varying concentrations of (pre-)tubulysins diluted in methanol. Each compound was tested in duplicate as well as the internal methanol control. After 5 d incubation, 20 μl of 5 mg/ml MTT (Thiazolyl blue tetrazolium bromide) in PBS was added per well and it was further incubated for 2 h at 37° C. The medium was then discarded and cells were washed with 100 μl PBS before adding 100 μl 2-propanol/10 N HCl (250:1) in order to dissolve formazan granules.
The absorbance at 570 nm was measured using a microplate reader (EL808, Bio-Tek Instruments Inc.), and cell viability was expressed as percentage relative to the respective methanol control. IC50 values were obtained by plotting relative growth inhibition in % against the compound concentration on a logarithmic scale. After sigmoidal curve fitting IC50 values can be determined. The IC50[per ml] are shown in the following table (values represent the average of two measurements):
Similarly cytotoxicity testing of Pretubulysin-related compounds in U-2 OS human osteosarcoma cells was performed and was further compared with AU 339 and AU 954, compounds mentioned in WO2008/106080 and WO2004/046170. The IC50 values are shown in the following table (values represent the average of two measurements): […]

The next experiment deals with A549. In words: Anti-proliferation MTT assay (Example 2, Table 1). Particulars: A549 human lung carcinoma. The class given is cell-based. A general note: Tetrazolium dyes change colour on reduction, which living cells bring about.
For experiment [3], the target named is T2, preassembled microtubules (Sus scrofa, UniProt P02550+P02554).
T2 construct: Microtubules proteins were purified from porcine brain; from tissue; host or cells: porcine brain
T2 sequence (P02554 whole entry): as the sequence (P02554 whole entry) above
T2 sequence (P02550 whole entry): as the sequence (P02550 whole entry) above
Put plainly: De-polymerization of preassembled microtubules (turbidometry). Format: biochemical, porcine. To be noted: drug added after about 5 min polymerization at 37° C., monitored 10 min at 350 nm. How it is done:
as §1, §2
In order to examine the action of the drug on preassembled microtubules, microtubules proteins were firstly polymerized at 37° C. for approximately 5 min. Then the drug was added, and the stability of the microtubules was measured for further 10 min at 350 nm.

Experiment [4] concerns L929, A549, SW-480, U937 and HL-60 cell lines. In words: Anti-proliferation MTT assay, comparison over the tested cell lines. The class given is cell-based.
Where [5] appears, read: comparison with prior art compounds.

One may read the IC50 as the concentration that gives 50% inhibition. As a reminder, the inhibition is the change of the read-out against control, counted positive when it falls. A higher inhibition goes with strong suppression. Turning to `CC[C@H](C)[C@H](NC(=O)[C@H]1CCCCN1C)C(=O)N(C)[C@H](CCc1nc(C(=O)N[C@H](CCC(=O)O)Cc2ccccc2)cs1)C(C)C` [pre-tubulysin-816, N-desmethyl-pretubulysin], the IC50 was 0.15 ng/mL (≈ 0.229 nM) in the experiment with HL-60 cells (HL-60, 120 h); 0.15 ng/mL (≈ 0.229 nM) in the experiment with HL-60 cells (HL-60, read-out: IC50 value); 37 ng/mL (≈ 56.4 nM) in the experiment with L929; 3.23 ng/mL (≈ 4.92 nM) in experiment [2]; 3.16 ng/mL (≈ 4.82 nM) in experiment [2] (setting [5]); 95 ng/mL (≈ 145 nM) in the experiment with A549. In experiment [1] (1.7 μM drug), this compound returned an inhibition at 1.7 µM of roughly 20%. 6.7 µM produced 60% inhibition in experiment [1] (6.7 μM drug, printed as inhibition 'to 60%'). Also, the “concentration at which effects on microtubules and spindle morphologies appear” value with PtK2 cells is recorded as no less than 500 ng/ml. In addition, the “concentration for complete de-polymerization (disappearance) of interphase microtubules” value in the experiment on PtK2 cells is “around 5 μg/ml”; with PtK2 cells (listed as Pre-tubulysin-816) it was 5 µg/mL. Also, the “effect on the interphase microtubules” value with PtK2 cells (concentrations up to 250 ng/ml, 24 h) is “did not show any clear effect”.

With `CC[C@H](C)[C@H](NC(=O)[C@H]1CCCCN1C)C(=O)N(C)[C@H](CCc1nc(C(=O)N[C@@H](Cc2ccccc2)C[C@H](C)C(=O)O)cs1)C(C)C` [pre-tubulysin-827, pretubulysin], the IC50 in the experiment on HL-60 cells (HL-60, 120 h) is 0.017 ng/mL (≈ 0.0254 nM); in the experiment with HL-60 cells (HL-60, read-out: IC50 value), 0.017 ng/mL (≈ 0.0254 nM); in the experiment with L929, 4.1 ng/mL (≈ 6.12 nM); in experiment [2], 0.56 ng/mL (≈ 0.836 nM); in experiment [2] (setting [5]) it was 0.56 ng/mL (≈ 0.836 nM); in the experiment with A549, 9 ng/mL (≈ 13.4 nM). In experiment [1] (1 μM drug), this compound yielded an inhibition at 1 µM of roughly 45%. The inhibition at 3.4 µM in experiment [1] (3.4 μM drug) was greater than 85%. Also, the “de-polymerization of preassembled microtubules” value in experiment [3] is reported as “induced de-polymerization of microtubules at substoichiometric concentrations”. For the same compound, in experiment [4], the “potency/toxicity of pre-tubulysin-827 relative to pre-tubulysin-816” value is on record as 5-10 folds. Moreover, the “concentration at which effects on microtubules and spindle morphologies appear” value in the experiment with PtK2 cells worked out at 50 ng/ml. Moreover, the “concentration for complete de-polymerization (disappearance) of interphase microtubules” value was no less than 1 µg/mL in the experiment on PtK2 cells and 1 µg/mL in the experiment on PtK2 cells (listed as Pre-tubulysin-827).
